Measured values taken from paper PMC9264115, “Pd-catalyzed C–C and C–N cross-coupling reactions in 2-aminothieno[3,2-d]pyrimidin-4(3H)-one series for antiplasmodial pharmacomodulation” (RSC Advances, 2022).

Legend:
[1] = tested on: K1 culture-adapted P. falciparum strain; experiment: Antiplasmodial evaluation, SYBR Green I fluorescence-based drug susceptibility test; type: cell-based; conditions: for EC50: Plasmodium falciparum, multi-resistant K1 strain of P. falciparum, 72 h incubation, three independent experiments, read-out: EC50 PfK1; for SI (selectivity index): from CC50 HepG2 and EC50 PfK1
Protocol: […]. Parasitemia was maintained daily between 1 and 3%. The P. falciparum drug susceptibility test was carried out by comparing quantities of DNA in treated and control cultures of parasite in human erythrocytes according to a SYBR Green I fluorescence-based method[19] using a 96-well fluorescence plate reader. Compounds previously dissolved in DMSO (final concentration less than 0.5% v/v) were incubated in a total assay volume of 200 μL (RPMI, 2% hematocrit and 0.4% parasitemia) for 72 h in a humidified atmosphere (10% O2 and 5% CO2) at 37 °C in 96-well flat bottom plates. Duplicate assays were performed for each sample. After incubation, plates were frozen at […] for 24 h. Then, the frozen plates were thawed for 1 h at 37 °C. Fifteen μL of each sample were transferred to 96-well flat bottom non-sterile black plates (Greiner Bio-one, Kremsmünster, Austria), already containing 15 μL of the SYBR Green I lysis buffer (2X SYBR Green I, 20 mM Tris base pH 7.5, 20 mM EDTA, 0.008% w/v saponin, 0.08% w/v Triton X-100). […] Plates were incubated for 15 min at 37 °C and then read on a TECAN Infinite F-200 spectrophotometer with excitation and emission wavelengths at 485 and 535 nm, respectively.

[2] = Cytotoxic evaluation, MTT assay; type: cell-based; conditions: HepG2 cells, human HepG2 cell line, three independent experiments
Protocol: The HepG2 cell line was maintained at 37 °C, 5% CO2, at 90% humidity in […] supplemented with 10% fetal bovine serum, 1% L-glutamine (200 mM), and penicillin (100 U per mL)/streptomycin (100 μg mL^−1) (complete RPMI medium). The cytotoxicity of the tested molecules on the HepG2 (hepatocarcinoma cell line purchased from ATCC, ref HB-8065) cell line was assessed according to the method of Mosmann[20] with slight modifications. Briefly, 5 × 10^3 cells in 100 μL of complete medium were inoculated into each well of 96-well plates and incubated at 37 °C in humidified 5% CO2. After 24 h incubation, 100 μL of medium with various product concentrations dissolved in DMSO (final concentration less than 0.5% v/v) were added and the plates were incubated for 72 h at 37 °C. Triplicate assays were performed for each sample. Each plate was then microscopically examined for possible precipitate formation before the medium was aspirated from the wells. Next, 100 μL of MTT (3-(4,5-dimethyl-2-thiazolyl)-2,5-diphenyl-2H-tetrazolium bromide) solution (0.5 mg mL^−1 in medium without FBS) was added to each well. Cells were incubated for 2 h at 37 °C. After this time, the MTT solution was removed and DMSO (100 μL) was added to dissolve the resulting blue formazan crystals. Plates were shaken vigorously (700 rpm) for 10 min. The absorbance was measured at 570 nm with 630 nm as a reference wavelength using a BIO-TEK ELx808 Absorbance Microplate Reader (LabX, Midland, ON, Canada). DMSO was used as a blank and doxorubicin (purchased from Sigma Aldrich) as a positive control. Cell viability was calculated as a percentage of control (cells incubated without the compound). […] CC50 values to represent the mean value calculated from three independent experiments.

| SMILES | EC50 [1] | melting point | SI (selectivity index) [1] | CC50 at 72 h [2] |
| --- | --- | --- | --- | --- |
| CC(C)(C)Nc1nc2cc(Br)sc2c(=O)[nH]1 [Compound 1, 6-Bromo-2-(tert-butylamino)thieno[3,2-d]pyrimidin-4(3H)-one] | 43.2 ± 2.6 µM |  | 0.9 | 38.2 ± 3.5 µM |
| Cc1ccc(Nc2cc3nc(NC(C)(C)C)[nH]c(=O)c3s2)cc1 [Compound 1a, 2-tert-Butylamino-6-[(4-methylphenyl)amino]thieno[3,2-d]pyrimidin-4(3H)-one] | 10.3 ± 0.2 µM |  |  | 21.7 ± 2.1 µM |
| COc1ccc(Nc2cc3nc(NC(C)(C)C)[nH]c(=O)c3s2)cc1 [Compound 1d, 2-tert-Butylamino-6-[(4-methoxyphenyl)amino]thieno[3,2-d]pyrimidin-4(3H)-one] | 7.2 ± 2 µM | 205 to 207 °C | 3.3 | 24 ± 3.1 µM |
| CC(C)(C)Nc1nc2cc(Nc3ccc(F)cc3)sc2c(=O)[nH]1 [Compound 1e, 2-tert-Butylamino-6-[(4-fluorophenyl)amino]thieno[3,2-d]pyrimidin-4(3H)-one] | 7.1 ± 1.4 µM | 195 to 197 °C | 3.0 | 21.3 ± 1.6 µM |
| CC(C)(C)Nc1nc2cc(C#CCCO)sc2c(=O)[nH]1 [Compound 2d, 2-tert-Butylamino-6-(4-hydroxybut-1-yn-1-yl)thieno[3,2-d]pyrimidin-4(3H)-one] | > 10 µM |  |  | > 50 µM |
| C#Cc1cc2nc(NC(C)(C)C)[nH]c(=O)c2s1 [Compound 2f, 2-tert-Butylamino-6-ethynylthieno[3,2-d]pyrimidin-4(3H)-one] | > 12.5 µM |  |  | 4.7 ± 1 µM |
| CN1CCN(CC#Cc2cc3nc(NC(C)(C)C)[nH]c(=O)c3s2)CC1 [Compound 2g, 2-tert-Butylamino-6-[3-(4-methylpiperazin-1-yl)prop-1-yn-1-yl]thieno[3,2-d]pyrimidin-4(3H)-one] | > 5 µM |  |  | 41.6 ± 5.2 µM |
| CC(C)Nc1nc2cc(Br)sc2c(=O)[nH]1 [Compound 3, 6-Bromo-2-(propan-2-ylamino)thieno[3,2-d]pyrimidin-4(3H)-one] | > 50 µM | 240 to 242 °C | <1.8 | 89.1 ± 9.7 µM |
| CC(C)(C)Nc1nc2cc(-c3ccc([N+](=O)[O-])cc3)sc2c(=O)[nH]1 [Compound 4b, 2-tert-Butylamino-6-(4-nitrophenyl)thieno[3,2-d]pyrimidin-4(3H)-one] |  | > 300 °C |  |  |
| CC(C)(C)Nc1nc2cc(-c3ccc(O)cc3)sc2c(=O)[nH]1 [Compound 4d, 2-(tert-butylamino)-6-(4-hydroxyphenyl)thieno[3,2-d]pyrimidin-4(3H)-one] | 7.5 ± 1 µM |  |  | 12.2 ± 0.3 µM |
| CC(C)Nc1nc2cc(-c3ccc(N)cc3)sc2c(=O)[nH]1 [Compound 4q, 6-(4-aminophenyl)-2-(propan-2-ylamino)thieno[3,2-d]pyrimidin-4(3H)-one] | 6 ± 1.1 µM |  |  | 11.3 ± 3.5 µM |

The next lines start with results.

| EC50 [1] | melting point | SMILES | SI (selectivity index) [1] | CC50 at 72 h [2] |
| --- | --- | --- | --- | --- |
| 1.1 ± 0.3 µM |  | Cc1cccc(Nc2cc3nc(NC(C)(C)C)[nH]c(=O)c3s2)c1 [Compound 1b, 2-tert-Butylamino-6-[(3-methylphenyl)amino]thieno[3,2-d]pyrimidin-4(3H)-one] |  | 5.3 ± 0.4 µM |
| 4.3 ± 0.2 µM |  | Cc1ccccc1Nc1cc2nc(NC(C)(C)C)[nH]c(=O)c2s1 [Compound 1c, 2-tert-Butylamino-6-[(2-methylphenyl)amino]thieno[3,2-d]pyrimidin-4(3H)-one] |  | 14.1 ± 0.3 µM |
| 4.5 ± 1.1 µM | 264 to 266 °C | CC(C)(C)Nc1nc2cc(N3CCOCC3)sc2c(=O)[nH]1 [Compound 1f, 2-tert-Butylamino-6-(morpholin-4-yl)thieno[3,2-d]pyrimidin-4(3H)-one] | >11.1 | > 50 µM |
| 2.35 ± 0.38 µM | 235 to 237 °C | Cc1ccc(C#Cc2cc3nc(NC(C)(C)C)[nH]c(=O)c3s2)cc1 [Compound 2b, 2-tert-Butylamino-6-[(4-methylphenyl)ethynyl]thieno[3,2-d]pyrimidin-4(3H)-one] | >5.3 | > 12.5 µM |
| 4.6 ± 1 µM | 277 to 279 °C | Cc1ccc(C#Cc2cc3nc(NC(C)C)[nH]c(=O)c3s2)cc1 [Compound 2c, 6-[(4-methylphenyl)ethynyl]-2-(propan-2-ylamino)thieno[3,2-d]pyrimidin-4(3H)-one] | 0.7 | 3.1 ± 0.6 µM |
| 1.9 ± 0.6 µM | 158 to 160 °C | CC(C)(C)Nc1nc2cc(C#CC3CC3)sc2c(=O)[nH]1 [Compound 2e, 2-tert-Butylamino-6-(cyclopropylethynyl)thieno[3,2-d]pyrimidin-4(3H)-one] | 10.9 | 20.8 ± 1.4 µM |
| 2.8 ± 1 µM | 276 to 278 °C | CC(C)Nc1nc2cc(C#Cc3ccccc3)sc2c(=O)[nH]1 [Compound 2h, 6-(phenylethynyl)-2-(propan-2-ylamino)thieno[3,2-d]pyrimidin-4(3H)-one] | >4.5 | > 12.5 µM |
| 2.5 ± 0.9 µM | > 300 °C | COC(=O)c1ccc(-c2cc3nc(NC(C)(C)C)[nH]c(=O)c3s2)cc1 [Compound 4a, Methyl-4-(2-tert-butylamino-4-oxo-3,4-dihydrothieno[3,2-d]pyrimidin-6-yl)benzoate] | >5.0 | > 12.5 µM |
| 2 ± 0.9 µM | 259 to 261 °C | CC(C)(C)Nc1nc2cc(-c3ccc(F)c(Cl)c3)sc2c(=O)[nH]1 [Compound 4e, 2-tert-Butylamino-6-(3-chloro-4-fluorophenyl)thieno[3,2-d]pyrimidin-4(3H)-one] | >6.3 | > 12.5 µM |
| 3.6 ± 1.2 µM | > 300 °C | CC(C)Nc1nc2cc(-c3ccc(F)c(Cl)c3)sc2c(=O)[nH]1 [Compound 4f, 2-(Propan-2-ylamino)-6-(3-chloro-4-fluorophenyl)thieno[3,2-d]pyrimidin-4(3H)-one] | >1.7 | > 6.25 µM |
| 2.4 ± 0.9 µM | > 300 °C | CC(C)(C)Nc1nc2cc(-c3ccc(N4CCOCC4)cc3)sc2c(=O)[nH]1 [Compound 4g, 2-tert-Butylamino-6-[4-(morpholin-4-yl)phenyl]thieno[3,2-d]pyrimidin-4(3H)-one] | 3.3 | 7.9 ± 1.3 µM |
| 4.1 ± 0.7 µM |  | CN1CCN(c2ccc(-c3cc4nc(NC(C)(C)C)[nH]c(=O)c4s3)cc2)CC1 [Compound 4h, 2-tert-Butylamino-6-[4-(4-methylpiperazin-1-yl)phenyl]thieno[3,2-d]pyrimidin-4(3H)-one] |  | 5.8 ± 0.5 µM |
| 4.1 ± 1.2 µM |  | CC(C)(C)Nc1nc2cc(-c3ccc(N4CCCCC4)cc3)sc2c(=O)[nH]1 [Compound 4i, 2-tert-Butylamino-6-[4-(piperidin-1-yl)phenyl]thieno[3,2-d]pyrimidin-4(3H)-one] |  | > 6.25 µM |
| 3 ± 0.6 µM |  | CC(C)(C)Nc1nc2cc(-c3ccc(S(C)(=O)=O)cc3)sc2c(=O)[nH]1 [Compound 4k, 2-tert-Butylamino-6-[4-(methylsulfonyl)phenyl]thieno[3,2-d]pyrimidin-4(3H)-one] |  | > 25 µM |
